Data as given in paper PMC11866022, “Long-Chain Cyclic Arylguanidines as Multifunctional Serotonin Receptor Ligands with Antiproliferative Activity” (ACS Omega, 2025).

Key:
[1] = system: LN-229 glioblastoma cells; experiment: Antiproliferative activity (MTS), LN-229; format: cell-based, human; conditions: Homo sapiens, LN-229; MTS assay, 72 h
Procedure: (§1) These cell lines were characterized by different mutation profiles, the main one being the variable status of the p53 protein. In detail, U87MG cells have a wild-type p53 protein, while astrocytoma and the rest of GBM cells harbor mutated p53 protein. Additional assays were performed on MCF7 breast cancer and AsPC-1 pancreatic cancer cells. The wide range of tested lines was aimed at screening the anticancer potential of the tested compounds. The first represents one of the most common and the second one of the most aggressive cancers in the world. Comparing the activity of compounds on GBM cells to other types of cancer may reveal their selectivity and usefulness in targeted therapies. The cytotoxicity of the compounds on normal human astrocytes (NHA) and Feline catus astrocyte (PG-4) was determined. Tests on normal lines serve to verify the potential toxicity of the tested compounds on healthy cells. Due to the targeting of CNS tumors, astrocytes were selected as normal lines.
(§2) The detailed procedure is presented in previous publications.[53] […] Cells were cultured in appropriate media, supplemented with FBS, antibiotics, and other supplements, and incubated at 37 °C with 5% CO2. […] Cell viability was assessed using the MTS assay, and the inhibitory concentration (IC50) was calculated using GraphPad Prism 8.0. Each compound was tested in triplicate across multiple experiments.

[2] = Affinity to phospholipids, CHI IAM (Valko protocol); format: physicochemical; conditions: IAM column
Procedure: (§3) Lipophilicity and affinity for phospholipids for each investigated molecule were assessed. Additionally, selected compounds with the highest biological activities have been characterized by their affinity plasma proteins. All experiments were performed using protocols developed by Valko.[35] These methods facilitated the calculation of chromatographic hydrophobicity indices (CHI) and plasma protein binding percentages (%PPB) in a biochromatographic experiment, with results compared to the reference. A detailed description of the experiments is provided in the Supporting Information (SI), along with the raw data. […] Although high lipophilicity may limit the medical use of the analyzed compounds since they may tend to accumulate excessively in the human body, it is remarkable that several clinically used drugs also have high lipophilicity. […] (Table 5).
(§4) The detailed procedure is presented in previous publications.[53] High-performance liquid chromatography (HPLC) analyses were conducted using the Prominence-1 LC-2030C 3D system (Shimadzu) with a DAD detector, employing three different chromatographic columns with specific stationary phases and mobile phases. The analysis was performed at 30 °C with a flow rate of 1.5 mL/min for IAM and C18 columns, and 0.9 mL/min for the Chiralpak column. Calibration standards for the columns were sourced from various suppliers and dissolved in dimethyl sulfoxide. Detection occurred in the UV range (190–300 nm) with a 5 μL injection volume. Each compound was analyzed in triplicate. Retention times for the tested compounds and calibration standards are provided in the Supporting Information (Tables S1 and S2).

5-HT1A = target: T1, 5-HT1A (Homo sapiens, UniProt P08908); experiment: Functional cAMP assay (LANCE Ultra), 5-HT1A; format: cell-based; conditions: for EC50: agonist mode; for function at 5-HT1A: in words
T1 construct: expressed in transfected cells; host or cells: HEK293
T1 sequence (P08908 1-422): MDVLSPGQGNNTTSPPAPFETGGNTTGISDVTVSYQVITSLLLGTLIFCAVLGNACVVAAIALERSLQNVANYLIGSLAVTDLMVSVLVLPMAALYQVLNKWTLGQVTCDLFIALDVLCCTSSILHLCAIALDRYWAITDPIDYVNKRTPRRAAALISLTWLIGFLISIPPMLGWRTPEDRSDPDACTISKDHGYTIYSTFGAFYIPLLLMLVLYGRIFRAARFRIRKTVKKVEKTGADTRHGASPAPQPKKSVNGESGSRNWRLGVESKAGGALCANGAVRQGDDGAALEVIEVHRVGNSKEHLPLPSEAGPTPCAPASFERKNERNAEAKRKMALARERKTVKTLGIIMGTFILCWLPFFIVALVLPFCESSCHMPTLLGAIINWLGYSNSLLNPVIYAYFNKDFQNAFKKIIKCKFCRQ
Procedure: Their functional activity was also evaluated by assessing their ability to inhibit agonist-induced cAMP production in HEK293 cells (Table 3). Extended radioisotope tests were aimed at detecting potential affinity for other aminergic receptors, whose role in cancer treatment may be important. Functions were tested for all receptors. The essence of functional tests results from the fact that serotonin stimulates tumor progression. Therefore, the ligand should have the potential to reduce its concentration, i.e., act as an antagonist.[39]
The detailed procedure is presented in previous publications.[53] The functional activity of the compounds was assessed using the LANCE Ultra cAMP detection kit (PerkinElmer). […] For other receptors (5-HT7R, 5-HT1AR, and 5-HT6R), 5-CT was used at 10, 100, and 1000 nM, respectively. Each compound was tested in triplicate across eight concentrations. The inhibitory constant (Kb) for each antagonist was calculated using the Cheng–Prusoff equation.

MCF7 breast cancer cells = experiment: Antiproliferative activity (MTS), MCF7; format: cell-based, human; conditions: Homo sapiens, MCF7; MTS assay, 72 h
Procedure: as §1, §2

[3] = Metabolic stability in mouse liver microsomes; format: in vitro ADME; conditions: MLMs; for main metabolic pathway / metabolic stability, % of remaining: 120 min
Text: Moving on to the next parameter, which is metabolism, we determined metabolic stability, using mouse liver microsomes (MLMs). […]
Main metabolic pathways are marked in red.

U87MG glioblastoma cells = experiment: Antiproliferative activity (MTS), U87MG; format: cell-based, human; conditions: Homo sapiens, U-87 MG; MTS assay
Procedure: as §1, §2
Supplementary materials - Biological research
B) U87MG glioblastoma multiforme line.
and U87MG glioblastoma multiforme line for C) PP 3; D) PP 6; E) PP 8; F) PP 10; G) PP 11; H) PP

HEK293 = experiment: Viability of HEK293 cells; format: cell-based; conditions: Homo sapiens
Text: PP 10 was characterized by a moderate 5-HT1A/5-HT5A/5-HT6/5-HT7 antagonist profile. […] Due to its potential function as an […], the viability of HEK293 cells treated with the test compounds was examined. No cytotoxic effects of the compounds were detected in the tested concentration range.

[4] = Lipophilicity, chromatographic hydrophobicity index on C18 (Valko protocol); format: physicochemical
Procedure: as §3, §4

HSA and AGP (24:1) = experiment: TRANSILXL PPB plasma protein binding assay; conditions: human, TRANSILXL PPB assay, HSA and AGP in a ratio 24:1
[5] = Solubility in DMSO and 10% DMSO in PBS buffer; format: physicochemical; conditions: symbols not defined; for Solubility, 10% DMSO, 1 mM: 10% DMSO in PBS buffer
Procedure: for 24 h. […] The IC50 were calculated as
Table S1. Solubility in DMSO and 10% DMSO in PBS buffer
3. Absorption – PAMPA permeability test
*Permeability coefficient.
**CFN = caffeine, well-permeable control

SMILES	IC50 [1] [µM]	CHI IAM [2]	EC50 (5-HT1A; Table 3, unit inferred, cAMP) [nM]	function at 5-HT1A (5-HT1A)	IC50 (MCF7 breast cancer cells) [µM]	metabolic stability, % of remaining [3] [%]	IC50 (U87MG glioblastoma cells) [µM]	CHI C18 pH 2.6 [4]	CHI C18 pH 7.4 [4]	CHI C18 pH 10.5 [4]	fraction unbound (HSA and AGP (24:1))	main metabolic pathway [3]	IC50 (HEK293) [µM]	Kb (5-HT1A; Table 3, unit inferred, cAMP, antagonist mode, 5-CT) [nM]	number of potential metabolites identified [3]	Solubility, 10% DMSO, 1 mM [5]	Solubility, 100% DMSO, 10 mM [5]
CC1NC(NCCCCCCNS(=O)(=O)c2cccc3ccccc23)=Nc2ccccc21 (centres unmarked) [PP 10, N-{6-[(4-Methyl-3,4-dihydroquinazolin-2-yl)amino]hexyl}naphthalene-1-sulfonamide]	> 25	56.4		antagonist	> 25	66.60	20.7 ± 1.2	89.8	99.7	120.4	0.003	double hydroxylation and double bond reduction or double hydroxylation and ring opening	> 50	74	14	+ + +	+ + +
O=S(=O)(NCCCCCCNc1ncc2ccccc2n1)c1cccc2ccccc12 [PP 15, N-{6-[(Quinazolin-2-yl)amino]hexyl}naphthalene-1-sulfonamide]	> 25	45.8			> 25	48.07	> 25	99	104.4	107.2		hydroxylation	> 50			+ + -	+ + -

The next lines start with results.

IC50 [1] [µM]	CHI IAM [2]	EC50 (5-HT1A; Table 3, unit inferred, cAMP) [nM]	function at 5-HT1A (5-HT1A)	IC50 (MCF7 breast cancer cells) [µM]	metabolic stability, % of remaining [3] [%]	IC50 (U87MG glioblastoma cells) [µM]	CHI C18 pH 2.6 [4]	CHI C18 pH 7.4 [4]	CHI C18 pH 10.5 [4]	fraction unbound (HSA and AGP (24:1))	SMILES	main metabolic pathway [3]	IC50 (HEK293) [µM]	Kb (5-HT1A; Table 3, unit inferred, cAMP, antagonist mode, 5-CT) [nM]	number of potential metabolites identified [3]	Solubility, 10% DMSO, 1 mM [5]	Solubility, 100% DMSO, 10 mM [5]
> 25	50.9	375	agonist	> 25	72.76	> 25	92.9	101.5	138.2		O=S(=O)(c1cccc2ccccc12)N1CCN(CCNC2=Nc3ccccc3CN2)CC1 [PP 6, N-{2-[4-(Naphthalene-1-sulfonyl)piperazin-1-yl]ethyl}-3,4-dihydroquinazolin-2-amine]	double hydroxylation and double bond reduction	51				
> 25	59.9	1540	agonist	19.3 ± 0.3	52.60	13.6 ± 1.1	115.8	105.7	128.8	0.001 ± 3e-07	CC1NC(NCCCCCCNS(=O)(=O)c2c(Cl)ccc3ccccc23)=Nc2ccccc21 (centres unmarked) [PP 13, 2-Chloro-N-{6-[(4-methyl-3,4-dihydroquinazolin-2-yl)amino]hexyl}naphthalene-1-sulfonamide]	ring opening and triple hydroxylation	> 50		11	+ + +	+ + +
18.4 ± 1.1	56.5			15.7 ± 1.6	93.13	13.6 ± 0.6	84.7	103.2	127	0.004	O=S1(=O)c2cccc3cccc(c23)N1CCCCCCNC1=Nc2ccccc2CN1 [PP 24, 3-{6-[(3,4-Dihydroquinazolin-2-yl)amino]hexyl}-2λ^6-thia-3-azatricyclo[6.3.1.0^4,^12]dodeca-1(11),4(12),5,7,9-pentaene-2,2-dione]	hydroxylation				+ + +	+ + +
